Results from US20250000858A1, “FGFR TYROSINE KINASE INHIBITORS FOR THE TREATMENT OF ADVANCED SOLID TUMORS” (JANSSEN PHARMACEUTICA NV, priority 2021, published 2025).
Values joined by “and” are separate entries in the source; they are usually repeats but may differ in a detail not shown here. Equal entries are not always repeated.

Tested on: advanced solid tumors with FGFR mutations or fusions
Test: Phase 2 RAGNAR study (NCT04083976): tumor response per RECIST v1.1 or RANO by IRC and investigator (ORR, DOR, DCR, CBR, PFS, OS, best overall response)
Assay type: in vivo, human
Text: Subjects ≥12 years of age with target FGFR mutations or any FGFR gene fusions were enrolled into the Broad Panel Cohort. […] A subgroup of subjects in the Broad Panel Cohort with a select panel of pre-specified FGFR markers were identified as the Core Panel Cohort (for analysis only). While the Broad Panel Cohort consists of target FGFR mutations and any fusions, the Core Panel Cohort consists of a select subset of FGFR mutations or fusions. Subjects with any other FGFR mutations that are not captured in the Broad Panel Cohort are included in the study as the Exploratory Cohort. A separate Cholangiocarcinoma Expansion Cohort enrolled subjects with target FGFR mutations or any FGFR gene fusion once the Broad Panel Cohort reached the cap of approximately 30 subjects for cholangiocarcinoma. […] Adolescent subjects enrolled in the Broad Panel Cohort (≥12 to <18 years) are considered part of the Broad Panel Cohort and the Pediatric Cohort.
(§1) Each dose was taken approximately at the same time each day, with or without food.
The Treated Population will consist of all subjects who receive at least 1 dose of study drug. The Treated Population is the primary population for efficacy and safety analyses. […] Adequate disease assessment is defined as having enough evidence to indicate that progression has or has not occurred.
Statistical Methods: For the Broad Panel Cohort, the primary endpoint was overall response rate (ORR) based on RECIST v1.1. or RANO as assessed by the IRC and was calculated with a 95% 2-sided exact confidence interval (CI). The primary endpoint was analyzed using data from the Treated Population (defined as all subjects who receive at least 1 dose of study drug) in the Broad Panel Cohort and the Core Panel Cohort. An error-spending function approach was used to split the significance level for the Broad Panel Cohort and the Core Panel Cohort.
as §1

[1] = PANCR (pancreatic cancer), N=13, IA3, Broad Panel Cohort
[2] = PANCR, Any FGFR, N=13, IA3, IRC
[3] = PANCR, per subject, efficacy analysis set n=124
[4] = PCA (prostate cancer), N=2, IA3, Broad Panel Cohort
[5] = SALIV (salivary gland cancer), N=2, efficacy analysis set, investigator assessment
[6] = SALIV (salivary gland cancer), N=5, IA3, Broad Panel Cohort
[7] = STS (soft tissue sarcoma), N=2, IA3, Broad Panel Cohort
[8] = Total, N=178, IA3, Broad Panel Cohort treated subjects
[9] = Total, Any FGFR, N=178, IA3, IRC
[10] = all tumor types, IA3, n=178, per IRC
[11] = fusions or target mutations in FGFR1, of 16, IA3, IRC

With `COc1cc(OC)cc(N(CCNC(C)C)c2ccc3ncc(-c4cnn(C)c4)nc3c2)c1` [erdafitinib, N-(3,5-dimethoxy-phenyl)-N′-(1-methylethyl)-N-[3-(1-methyl-1H-pyrazol-4-yl)quinoxalin-6-yl]ethane-1,2-diamine] the “Confirmed Objective Response Rate by INV” value [1] was 4 (30.8%) (9.1%, 61.4%), the “Confirmed Objective Response Rate by IRC” value [1] was 5 (38.5%) (13.9%, 68.4%) and the “Median DOR by INV” value [1] was 8.48 (4.14, NE) months. For the same compound, the “Median DOR by IRC” value [1] was 7.1 months and 7.10 (2.76, NE) months, the “ORR (%)” value [2] was “(38.5) %” and the “ORR n (responders)” value [2] was 5. The “ORR (%)” value (PANCR, FGFR1, N=2, IA3, IRC) was “(50.0) %”, the “ORR n (responders)” value (PANCR, FGFR1, N=2, IA3, IRC) was 1 and the “ORR (%)” value (PANCR, FGFR2, N=11, IA3, IRC) was “(36.4) %”. For the same compound, the “ORR n (responders)” value (PANCR, FGFR2, N=11, IA3, IRC) was 4, the DOR [3] was 4.1 months and 10.1+ months and 8.5 months and 5.6+ months and the PFS [3] was 5.4 months and 14.3+ months and 8.2 months and 0.0+ months and 5.6 months and 9.6 months and 8.5+ months and 5.3 months and 3.8 months. The “Confirmed Objective Response Rate by INV” value [4] was 0 (NE, NE) %, the “Confirmed Objective Response Rate by IRC” value [4] was 0 (NE, NE) % and the “Objective Response Rate” value (PCA (prostate cancer), N=2, efficacy analysis set, investigator assessment) was 0 (NE, NE) %. The “Objective Response Rate” value (PTHCA, N=1, efficacy analysis set, investigator assessment) was 0 (NE, NE) %, the “Median DOR” value [5] was “NE (NE, NE)” and the “Objective Response Rate” value [5] was 1 (50.0%) (1.3%, 98.7%). For the same compound, the “Confirmed Objective Response Rate by INV” value [6] was 5 (100.0%) (47.8%, 100.0%), the “Confirmed Objective Response Rate by IRC” value [6] was 4 (80.0%) (28.4%, 99.5%) and the “Median DOR by INV” value [6] was 6.93 (NE, NE) months. The “Median DOR by IRC” value [6] was 6.93 (NE, NE) months, the “Confirmed Objective Response Rate by INV” value [7] was 0 (NE, NE) % and the “Confirmed Objective Response Rate by IRC” value [7] was 0 (NE, NE) %. For the same compound, the Best overall response (Squamous Cell Head and Neck Cancers, FGFR3-S249C mutation, single patient, interim analysis 2) was “uPR”, the “Objective Response Rate” value (THYM, N=1, efficacy analysis set, investigator assessment) was 0 (NE, NE) % and the “Median DOR” value (Total, N=124, efficacy analysis set, investigator assessment) was 6.93 months and 6.93 (4.60, 9.63) months. For the same compound, the “Median DOR by INV” value [8] was 7.10 months and 7.10 (5.52, 9.33) months, the “Median DOR by IRC” value [8] was 6.90 months and 6.90 (4.37, 7.95) months and the “ORR (%)” value [9] was “(29.2) %”. The “ORR n (responders)” value [9] was 52, the “ORR (%)” value (Total, FGFR1, N=16, IA3, IRC) was “(25.0) %” and the “ORR n (responders)” value (Total, FGFR1, N=16, IA3, IRC) was 4. The “ORR (%)” value (Total, FGFR2, N=87, IA3, IRC) was “(42.5) %”, the “ORR n (responders)” value (Total, FGFR2, N=87, IA3, IRC) was 37 and the “ORR (%)” value (Total, FGFR3, N=75, IA3, IRC) was “(16.0)^3%”. The “ORR n (responders)” value (Total, FGFR3, N=75, IA3, IRC) was 12, the OS (across all tumor types, IA3) was 10.9 months and the PFS (across all tumor types, IA3) was 4.2 months. The “patients with shrinkage of target lesions” value (all tumor types, IA3 (FIG. 6)) was 72.5%, the CBR [10] was 46.1% and the DCR [10] was 72.5%. For the same compound, the “patients with ongoing responses at the CCO” value (among 52 responders (CR/PR), IA3) was 21 patients, the “patients with a DOR of at least 6 months” value (among 52 responders, IA3) was 14 patients and the “patients with a DOR<4 months” value (among 52 responders, IA3) was 24 patients. The “responders with a DOR of at least 4 to 6 months” value (among 52 responders, IA3) was 14 patients, the “tumor shrinkage in the majority of subjects with SD” value (efficacy analysis set (FIG. 4)) was 10-29% and the “subjects with SD with at least 4 months of disease stability” value (efficacy analysis set (n=124)) was 33 subjects. For the same compound, the “different tumor types with objective responses” value (efficacy analysis set, investigator assessment) was 12 tumor types, the “median time to response” value (efficacy analysis set, range 1.2-7.9) was 1.41 months and the “DOR of the subject with the longest ongoing PR” value (endometrial cancer, efficacy analysis set) was 10.9 months. It also gave an ORR (fusions (27/90), efficacy analysis set) of 30.0%, an ORR (fusions (38/122), IA3, IRC) of 31.3% and a CRs (fusions (of 122), IA3, IRC) of 2 patients. It also gave a PRs (fusions (of 122), IA3, IRC) of 36 patients, a CR [11] of 1 patients and a PR [11] of 3 patients.
